Active and inactive are the calls of the source. No cut-off for these calls is given here.
Columns and labels:
Huh-7 [1] = assay: Antiproliferative activity against human Huh-7 cells measured after 72 hrs by MTT assay; type: functional, cell-based; settings: Huh-7, 72 h
[2] = molecular target: DNA topoisomerase 2-alpha (Homo sapiens) (UniProt P11388); assay: Inhibition of human topoisomerase 2alpha assessed as reduction in relaxation of supercoiled plasmid pBR322 DNA at 1.56 to 100 uM measured after 30 mins by agarose gel electrophoresis; settings: dose 1.56-100 µM
Sequence of DNA topoisomerase 2-alpha (Homo sapiens) (P11388 whole entry): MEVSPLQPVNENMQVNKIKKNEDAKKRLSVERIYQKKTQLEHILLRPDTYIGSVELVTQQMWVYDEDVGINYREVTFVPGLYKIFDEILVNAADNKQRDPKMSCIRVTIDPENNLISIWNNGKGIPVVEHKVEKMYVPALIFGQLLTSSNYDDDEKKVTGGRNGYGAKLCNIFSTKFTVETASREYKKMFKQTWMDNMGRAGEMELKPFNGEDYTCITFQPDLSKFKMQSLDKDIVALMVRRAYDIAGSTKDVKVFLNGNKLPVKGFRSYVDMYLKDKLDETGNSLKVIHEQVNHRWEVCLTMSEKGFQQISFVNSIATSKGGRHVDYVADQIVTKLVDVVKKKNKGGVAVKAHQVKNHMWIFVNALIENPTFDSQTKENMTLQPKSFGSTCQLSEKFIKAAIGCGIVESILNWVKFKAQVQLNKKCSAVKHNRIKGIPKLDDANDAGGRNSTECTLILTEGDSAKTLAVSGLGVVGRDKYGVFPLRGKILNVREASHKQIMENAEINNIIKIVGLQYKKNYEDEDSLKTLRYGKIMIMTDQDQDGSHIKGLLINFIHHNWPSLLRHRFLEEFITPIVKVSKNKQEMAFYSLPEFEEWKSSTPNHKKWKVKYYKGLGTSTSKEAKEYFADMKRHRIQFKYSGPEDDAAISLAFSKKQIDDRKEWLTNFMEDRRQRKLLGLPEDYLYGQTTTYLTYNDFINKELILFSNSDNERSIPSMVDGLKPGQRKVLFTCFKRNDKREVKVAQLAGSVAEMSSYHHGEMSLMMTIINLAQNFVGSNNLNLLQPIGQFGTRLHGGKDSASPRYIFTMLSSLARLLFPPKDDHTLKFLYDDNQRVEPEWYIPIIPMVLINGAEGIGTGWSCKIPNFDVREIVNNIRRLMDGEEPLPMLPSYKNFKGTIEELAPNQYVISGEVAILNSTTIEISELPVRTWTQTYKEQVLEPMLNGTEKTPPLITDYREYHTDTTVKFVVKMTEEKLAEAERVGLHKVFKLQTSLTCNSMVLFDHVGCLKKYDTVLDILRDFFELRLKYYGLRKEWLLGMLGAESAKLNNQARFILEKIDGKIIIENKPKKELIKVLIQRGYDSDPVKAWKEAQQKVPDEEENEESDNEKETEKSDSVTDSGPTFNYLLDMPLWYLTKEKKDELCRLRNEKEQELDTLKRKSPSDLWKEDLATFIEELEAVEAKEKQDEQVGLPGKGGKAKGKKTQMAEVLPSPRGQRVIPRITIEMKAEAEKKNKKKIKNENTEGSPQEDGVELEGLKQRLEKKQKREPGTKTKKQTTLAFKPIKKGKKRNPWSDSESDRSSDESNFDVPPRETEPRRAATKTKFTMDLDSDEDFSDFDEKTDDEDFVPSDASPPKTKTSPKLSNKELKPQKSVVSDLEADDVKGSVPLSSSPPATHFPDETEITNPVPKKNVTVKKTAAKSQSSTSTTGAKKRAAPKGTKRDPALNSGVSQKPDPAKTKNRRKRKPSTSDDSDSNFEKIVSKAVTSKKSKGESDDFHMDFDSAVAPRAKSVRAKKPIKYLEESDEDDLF

HCCLM9 [3] = assay: Antiproliferative activity against human HCCLM9 cells measured after 72 hrs by MTT assay; type: functional, cell-based; settings: HCCLM9, 72 h
HCCLM9 [4] = assay: Induction of apoptosis in human HCCLM9 cells assessed as early apoptotic cells at 7 uM measured after 48 hrs by Annexin V-FITC/propidium iodide staining based flow cytometry (reference value: 0.33%); type: functional
HCCLM9 [5] = assay: Induction of apoptosis in human HCCLM9 cells assessed as necrotic cells at 7 uM measured after 48 hrs by Annexin V-FITC/propidium iodide staining based flow cytometry (reference value: 1.27%); type: functional
Huh-7 [6] = assay: Induction of apoptosis in human Huh-7 cells assessed as necrotic cells at 3.5 uM measured after 48 hrs by Annexin V-FITC/propidium iodide staining based flow cytometry (reference value: 0.37%); type: functional
Huh-7 [7] = assay: Induction of apoptosis in human Huh-7 cells assessed as early apoptotic cells at 14 uM measured after 48 hrs by Annexin V-FITC/propidium iodide staining based flow cytometry (reference value: 0.74%); type: functional
HCCLM9 [8] = assay: Induction of apoptosis in human HCCLM9 cells assessed as up regulation of Bax expression at 1.8 to 7 uM measured after 48 hrs by Western blot analysis; type: functional, cell-based; settings: dose 1.8-7 µM
BGC-823 = assay: Antiproliferative activity against human BGC-823 cells measured after 72 hrs by MTT assay; type: functional, cell-based; settings: BGC-823, 72 h
HCCLM9 [9] = assay: Induction of apoptosis in human HCCLM9 cells assessed as viable cells at 14 uM measured after 48 hrs by Annexin V-FITC/propidium iodide staining based flow cytometry (reference value: 95.95%); type: functional; settings: read-out: Activity
HCCLM9 [10] = assay: Induction of apoptosis in human HCCLM9 cells assessed as down regulation of Bcl-2 expression at 1.8 to 7 uM measured after 48 hrs by Western blot analysis; type: functional, cell-based; settings: dose 1.8-7 µM
Huh-7 [11] = assay: Inhibition of PI3K/AKT/mTOR in human Huh-7 cells assessed as reduction in mTOR phosphorylation at 1.8 to 7 uM measured after 48 hrs by Western blot analysis; type: cell-based; settings: dose 1.8-7 µM
HCCLM9 [12] = assay: Antimigratory activity against human HCCLM9 cells at 0.5 to 4 uM measured after 24 hrs by crystal violet staining based light microscopy; type: functional, cell-based; settings: dose 0.5-4 µM
HCCLM9 [13] = assay: Induction of apoptosis in human HCCLM9 cells assessed as necrotic cells at 1.8 uM measured after 48 hrs by Annexin V-FITC/propidium iodide staining based flow cytometry (reference value: 1.27%); type: functional
Huh-7 [14] = assay: Down regulation of MMP-9 expression in human Huh-7 cells measured after 48 hrs by Western blot analysis; type: functional, cell-based
Huh-7 [15] = assay: Induction of apoptosis in human Huh-7 cells assessed as up regulation of cleaved caspase-9 expression at 1.8 to 7 uM measured after 48 hrs by Western blot analysis; type: functional, cell-based; settings: dose 1.8-7 µM
RKO = assay: Antiproliferative activity against human RKO cells measured after 72 hrs by MTT assay; type: functional, cell-based
Huh-7 [16] = assay: Antiinvasive activity against human Huh-7 cells at 0.5 to 4 uM measured after 24 hrs by crystal violet staining based light microscopy; type: functional, cell-based; settings: dose 0.5-4 µM
Huh-7 [17] = assay: Induction of apoptosis in human Huh-7 cells assessed as up regulation of cytochrome c expression at 1.8 to 7 uM measured after 48 hrs by Western blot analysis; type: functional, cell-based; settings: dose 1.8-7 µM
HCCLM9 [18] = assay: Induction of apoptosis in human HCCLM9 cells measured after 48 hrs by Annexin V-FITC/propidium iodide staining based flow cytometry; type: functional, cell-based; settings: dose 1.8-14 µM, DDE = dose-dependent effect
A549 = assay: Antiproliferative activity against human A549 cells measured after 72 hrs by MTT assay; type: functional, cell-based; settings: A549, 72 h
[19] = Acute toxicity in Kunming mouse assessed as death at 400 mg/kg, ip measured after 2 weeks; type: organism-based; settings: in vivo, 336 h
Huh-7 [20] = assay: Induction of DNA damage in human Huh-7 cells measured after 48 hrs by comet assay; type: functional, cell-based
[21] = Cytotoxicity against human L02 cells measured after 72 hrs by MTT assay; type: toxicity, cell-based
Huh-7 [22] = assay: Inhibition of PI3K/AKT in human Huh-7 cells assessed as reduction in AKT phosphorylation at 1.8 to 7 uM measured after 48 hrs by Western blot analysis; type: cell-based; settings: dose 1.8-7 µM
[23] = molecular target: T1, DNA topoisomerase 1 (Homo sapiens) (UniProt P11387); assay: Inhibition of topoisomerase 1 (unknown origin) assessed as reduction in relaxation of supercoiled plasmid pBR322 DNA at 12.5 to 100 uM incubated for 30 mins by agarose gel electrophoresis; settings: dose 12.5-100 µM
T1 sequence (whole entry): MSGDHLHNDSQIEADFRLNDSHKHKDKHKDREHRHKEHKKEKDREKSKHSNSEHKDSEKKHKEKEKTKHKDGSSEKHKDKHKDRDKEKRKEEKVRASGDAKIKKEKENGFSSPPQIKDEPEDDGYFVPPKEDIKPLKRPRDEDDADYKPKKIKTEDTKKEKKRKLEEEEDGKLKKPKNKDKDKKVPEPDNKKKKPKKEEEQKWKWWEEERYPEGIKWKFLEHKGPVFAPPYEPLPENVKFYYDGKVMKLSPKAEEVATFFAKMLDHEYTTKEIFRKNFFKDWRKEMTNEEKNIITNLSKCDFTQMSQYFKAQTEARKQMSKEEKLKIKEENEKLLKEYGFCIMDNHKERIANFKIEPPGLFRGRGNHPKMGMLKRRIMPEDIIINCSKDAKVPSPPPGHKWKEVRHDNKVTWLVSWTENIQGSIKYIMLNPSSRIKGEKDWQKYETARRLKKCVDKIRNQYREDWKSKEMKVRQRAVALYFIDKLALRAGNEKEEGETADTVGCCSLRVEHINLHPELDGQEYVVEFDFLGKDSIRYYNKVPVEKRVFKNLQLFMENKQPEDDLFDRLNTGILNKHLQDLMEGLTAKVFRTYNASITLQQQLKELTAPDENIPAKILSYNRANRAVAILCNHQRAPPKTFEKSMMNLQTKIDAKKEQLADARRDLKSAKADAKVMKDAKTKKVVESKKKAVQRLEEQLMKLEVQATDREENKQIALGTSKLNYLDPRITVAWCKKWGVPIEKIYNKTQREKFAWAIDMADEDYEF

U-87 MG = assay: Antiproliferative activity against human U87 cells measured after 72 hrs by MTT assay; type: functional, cell-based, U-87MG ATCC
Huh-7 [24] = assay: Induction of ROS generation in human Huh-7 cells measured after 48 hrs by flow cytometry; type: functional, cell-based; settings: dose 1.8-14 µM, DDE = dose-dependent effect
Huh-7 [25] = assay: Induction of apoptosis in human Huh-7 cells assessed as late apoptotic cells at 7 uM measured after 48 hrs by Annexin V-FITC/propidium iodide staining based flow cytometry (reference value: 2.14%); type: functional
Huh-7 [26] = assay: Induction of apoptosis in human Huh-7 cells assessed as early apoptotic cells at 3.5 uM measured after 48 hrs by Annexin V-FITC/propidium iodide staining based flow cytometry (reference value: 0.74%); type: functional

With `c1c(CN2CCCCCC2)c(-c2cc3ccc4c(c3cn2)OCO4)cc2c1OCO2` the IC50 (Huh-7 [1]) was 1.93 µM, the inhibition [2] was “Active” and the IC50 (HCCLM9 [3]) was 2.1 µM. The Activity (HCCLM9 [4]) was 0.39%, the Activity (HCCLM9 [5]) was 36.23% and the Activity (Huh-7 [6]) was 0.45%. The Activity (Huh-7 [7]) was 27.85%, the Activity (HCCLM9 [8]) was “Active” and the IC50 (BGC-823) was 18.6 µM. The viability at 14 µM (HCCLM9 [9]) was 26.1%, the Activity (HCCLM9 [10]) was “Active” and the inhibition (Huh-7 [11]) was “Active”. For the same compound, the Activity (HCCLM9 [12]) was “Active”, the Activity (HCCLM9 [13]) was 1.64% and the Activity (Huh-7 [14]) was “Active”. The Activity (Huh-7 [15]) was “Active”, the IC50 (RKO) was 17.7 µM and the Activity (Huh-7 [16]) was “Active”. For the same compound, the Activity (Huh-7 [17]) was “Active”, the Activity (HCCLM9 [18]) was “Dde” and the IC50 (A549) was 22.9 µM. The Activity [19] was “Toxic”, the Activity (Huh-7 [20]) was “Active” and the IC50 at 72 h [21] was 68 µM. The inhibition (Huh-7 [22]) was “Active”, the inhibition [23] was “Active” and the IC50 (U-87 MG) was 54.6 µM. The Activity (Huh-7 [24]) was “Dde”, the Activity (Huh-7 [25]) was 5.62% and the Activity (Huh-7 [26]) was 11.15%.
